19 molecules from publication PMC9465256, “Discovering monoacylglycerol lipase inhibitors by a combination of fluorogenic substrate assay and activity-based protein profiling” (Frontiers in Pharmacology, 2022) can be followed below.

What all share (type): biochemical
The target of experiment [1] is T1, human MAGL (Homo sapiens, UniProt Q99685).
T1 construct: expressed in transfected cells; host or cells: HEK293T (transient transfection; membrane fraction)
T1 sequence (Q99685 1-303): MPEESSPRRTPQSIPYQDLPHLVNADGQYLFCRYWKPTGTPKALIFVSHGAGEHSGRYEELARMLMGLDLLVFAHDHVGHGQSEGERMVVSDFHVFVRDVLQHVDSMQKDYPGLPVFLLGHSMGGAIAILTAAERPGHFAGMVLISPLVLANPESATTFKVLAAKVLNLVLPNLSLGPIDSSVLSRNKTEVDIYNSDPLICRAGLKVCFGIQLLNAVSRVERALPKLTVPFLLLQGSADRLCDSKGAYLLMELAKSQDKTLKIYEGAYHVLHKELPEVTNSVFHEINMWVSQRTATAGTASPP
As to the kind of experiment: MAGL activity assay (AA-HNA fluorogenic substrate). The settings on record: read-out: MAGL Inhibition (%); for activity at 100 µM / activity: AA-HNA substrate assay, Supplementary Table 1, 100 µM. On the procedure: (§1) HEK293T cells were cultured at 37°C under 5% CO2 in a DMEM medium with stable glutamine and phenolred, containing 10% fetal bovine serum (FBS, Gibco), penicillin, and streptomycin. The cells were passaged every 2–3 days by resuspension in the medium at ∼90% confluence. The membranes used in this study were prepared from transiently transfected HEK293T cells. Briefly, 1 day prior to transfection, ∼10^7 cells were seeded in 15 cm plates, and then the cells were transfected by the addition of a mixture of polyethyleneimine and plasmid DNA (3:1, 60, and 20 µg) in 2 ml of medium (without serum). Of note, the empty pcDNA3.1 vector was used in the Mock-control. After 24 h, the medium was removed and the cells were refreshed with fresh medium. After 72 h, the cells were harvested by suspending in 20 ml of medium, and the supernatant was removed by centrifugation for 10 min at 1,000 rpm. The cell pellet was flash frozen in liquid nitrogen and stored at −80°C until use. Subsequently, the cell pellets were suspended in lysis buffer (30 mM Tirs, pH 7.5, 1 mM MgCl2, 25 U/ml Benzonase), which was homogenized by sonication (3 × 10 bursts) and incubated for 30 min on ice. The membrane fractions overexpressing MAGL/ABHD6/ABHD12 were separated by ultracentrifuge (100,000 g, 30 min, 4 C). The protein concentration was determined with a Qubit protein assay (Invitrogen). The protein samples were quickly frozen in liquid nitrogen and stored at −80 C until use.
The MAGL activity assay is based on the hydrolysis of 2-arachidonoylglycerol-based fluorogenic substrate by MAGL-overexpressing membrane preparations from transiently transfected HEK293T cells. In brief, the reactions were performed in HEPES buffer (40 mM HEPES, pH 7.5, 0.1 mg/ml BSA) in black, flat bottom 96-well plates. […] After the incubation of the inhibitor-protein complex for 30 min, 10 µl of the fluorogenic substrate (AA-HNA, 200 µM) was added and fluorescence was measured in 1 min intervals for 30 min on a plate reader (BioTek). […] All the measurements were performed in N = 2, n = 2 for inhibitors and N = 2, n = 4 for controls with Z′ value ≥0.6. The slope is determined in 5–15 min for all the experiments.

For experiment [2], the target named is T2, human ABHD6 (Homo sapiens, UniProt Q9BV23).
T2 construct: expressed in transfected cells; host or cells: HEK293T (transient transfection; membrane fraction)
T2 sequence (Q9BV23 1-337): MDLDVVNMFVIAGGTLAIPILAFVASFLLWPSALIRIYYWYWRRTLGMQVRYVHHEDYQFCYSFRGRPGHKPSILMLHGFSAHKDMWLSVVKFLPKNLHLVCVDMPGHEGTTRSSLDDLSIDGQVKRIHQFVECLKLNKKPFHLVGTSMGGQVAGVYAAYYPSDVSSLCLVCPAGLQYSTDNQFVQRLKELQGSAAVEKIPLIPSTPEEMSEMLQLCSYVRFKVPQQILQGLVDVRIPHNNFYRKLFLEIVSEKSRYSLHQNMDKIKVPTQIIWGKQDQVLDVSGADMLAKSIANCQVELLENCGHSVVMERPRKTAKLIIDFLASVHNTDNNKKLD
Briefly: ABHD6 activity assay (AA-HNA fluorogenic substrate). The settings on record: read-out: ABHD6 Inhibition (%); for activity at 100 µM / activity: AA-HNA substrate assay, Supplementary Table 2, 100 µM. The method, then: as §1
The MAGL activity assay is based on the hydrolysis of 2-arachidonoylglycerol-based fluorogenic substrate by MAGL-overexpressing membrane preparations from transiently transfected HEK293T cells. In brief, the reactions were performed in HEPES buffer (40 mM HEPES, pH 7.5, 0.1 mg/ml BSA) in black, flat bottom 96-well plates. The final protein concentration of membrane fractions from overexpressing human MAGL HEK293T cells was 12.5 μg/ml 5 µl of inhibitors were added from×40 concentrated DMSO stocks in the 96-well plate containing 145 µl assay buffer, followed by the addition of 40 µl of the protein (12.5 μg/ml). After the incubation of the inhibitor-protein complex for 30 min, 10 µl of the fluorogenic substrate (AA-HNA, 200 µM) was added and fluorescence was measured in 1 min intervals for 30 min on a plate reader (BioTek). Final assay concentrations: 12.5 μg/ml MAGL, […], and […] in the total volume of 200 µl. All the measurements were performed in N = 2, n = 2 for inhibitors and N = 2, n = 4 for controls with Z′ value ≥0.6. The slope is determined in 5–15 min for all the experiments.
The ABHD6 activity assay is based on the same principle as the MAGL activity assay described earlier, but with human ABHD6 overexpressing membrane preparations at a final protein concentration of 50 μg/ml and 200 µM AA-HNA. Other conditions are the same as those of the MAGL activity assay.

In experiment [3] the target is T3, human ABHD12 (Homo sapiens, UniProt Q8N2K0).
T3 construct: expressed in transfected cells; host or cells: HEK293T (transient transfection; membrane fraction)
T3 sequence (Q8N2K0 1-398): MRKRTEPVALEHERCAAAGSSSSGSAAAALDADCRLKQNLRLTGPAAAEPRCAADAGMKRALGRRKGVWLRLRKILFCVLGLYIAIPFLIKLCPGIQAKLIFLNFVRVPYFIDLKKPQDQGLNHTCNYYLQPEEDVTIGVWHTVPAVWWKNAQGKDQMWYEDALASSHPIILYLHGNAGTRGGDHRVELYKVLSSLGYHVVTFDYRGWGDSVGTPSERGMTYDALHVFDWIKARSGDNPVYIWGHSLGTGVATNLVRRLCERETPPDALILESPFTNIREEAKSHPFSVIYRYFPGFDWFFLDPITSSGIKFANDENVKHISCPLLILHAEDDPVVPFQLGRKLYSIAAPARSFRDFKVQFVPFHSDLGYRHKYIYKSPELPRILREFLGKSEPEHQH
Briefly: ABHD12 activity by competitive ABPP with FP-TAMRA. The settings on record: read-out: ABHD12 Inhibition (%); for activity at 100 µM / activity: 100 µM compound, competitive ABPP with probe FP-TAMRA (250 nM). The method, then:
as §1
The ABHD12 activity assay is based on competitive activity-based protein profiling (ABPP) with human ABHD12 overexpressing membrane fractions. Briefly, the membrane proteome (1 mg/ml, 20 µl) was incubated at room temperature with 0.5 µl DMSO (vehicle) or inhibitor for 30 min. Subsequently, the samples were treated with the activity-based probe FP-TAMRA (250 nM, final concentration) for 20 min. The reactions were then quenched by 10 µl sample buffer (×4) (final concentrations: 60 mM Tris, pH 6.8, 2% (w/v) SDS, 10% (v/v) glycerol, 5% (v/v) β-mercaptoethanol, 0.01% (v/v) bromophenol blue). The samples were directly loaded and resolved on SDS-PAGE gel (10% acrylamide), which were then scanned using a ChemiDoc MP system (Cy3 settings, BioRad).

SMILES strings stand for the structures.

With `O=c1cccc2n1C[C@@H]1CNC[C@H]2C1` [compound 25, Cytisine], the percent inhibition at 100 µM worked out at 99% in experiment [1] and 87.9% in experiment [3]. Moreover, the percent inhibition of ABHD6 at 100 µM in experiment [2] stood at 104%.

For the molecule `C[C@H]1[C@@H](O)O[C@@H]2O[C@@]3(C)CC[C@H]4[C@H](C)CC[C@@H]1[C@@]24OO3` [compound 26, Dihydroartemisinin], the activity at 100 µM in experiment [1] came out at 92.5%; in experiment [2], 89.2%; in experiment [3], 81.1%.

For `Cc1cc(O)c2c(c1)C(=O)c1cc(O)cc(O)c1C2=O` [compound 28, Emodin], the activity at 100 µM amounted to 63.2% in experiment [1], 87.9% in experiment [2] and 67.6% in experiment [3].

Turning to `O=c1c(O)c(-c2ccc(O)c(O)c2)oc2cc(O)ccc12` [compound 29, Fisetin], the activity at 100 µM is 76.2% in experiment [1], 82.4% in experiment [2] and 51.9% in experiment [3].

With `CC1(C)[C@@H](O)CC[C@]2(C)[C@H]3C(=O)C=C4[C@@H]5C[C@@](C)(C(=O)O)CC[C@]5(C)CC[C@@]4(C)[C@]3(C)CC[C@@H]12` [compound 30, Enoxolone], the activity at 100 µM in experiment [1] turned out to be 95.9%; in experiment [2], 92%; in experiment [3], 89.1%.

For `COc1ccc(-c2coc3cc(O)ccc3c2=O)cc1` [compound 31, Formononetin], the figures for the activity at 100 µM in experiment [1], in experiment [2] and in experiment [3] were 103%, 94.1% and 77.5%, respectively.

`COc1cc(/C=C/C(=O)O)ccc1O` [compound 32, Ferulic Acid]: the activity in experiment [1] came out at 104%; in experiment [2], 92.4%; in experiment [3] it was 80.8%.

For the molecule `CC1(C)[C@@H](O[C@H]2O[C@H](C(=O)O)[C@@H](O)[C@H](O)[C@H]2O[C@@H]2O[C@H](C(=O)O)[C@@H](O)[C@H](O)[C@H]2O)CC[C@]2(C)[C@H]3C(=O)C=C4[C@@H]5C[C@@](C)(C(=O)O)CC[C@]5(C)CC[C@@]4(C)[C@]3(C)CC[C@@H]12` [compound 33, Glycyrrhizin], the results for the activity at 100 µM in experiment [1], in experiment [2] and in experiment [3] were 99.5%, 92.9% and 69.3%, respectively.

On to `CN(C)Cc1c[nH]c2ccccc12` [compound 35, Gramine], for which the results for the activity at 100 µM in experiment [1], in experiment [2] and in experiment [3] were 97.3%, 99% and 82.7%, respectively.

For the molecule `COc1ccc([C@@H]2CC(=O)c3c(O)cc(O)cc3O2)cc1O` [compound 37, Hesperetin], the figures for the activity at 100 µM in experiment [1], in experiment [2] and in experiment [3] were 90.9%, 104% and 83.6%, respectively.

Regarding `COc1ccc([C@@H]2CC(=O)c3c(O)cc(O[C@@H]4O[C@H](CO[C@@H]5O[C@@H](C)[C@H](O)[C@@H](O)[C@H]5O)[C@@H](O)[C@H](O)[C@H]4O)cc3O2)cc1O` [compound 38, Hesperidin], the activity in experiment [1] came out at 91.4%; in experiment [2] it was 94.3%; in experiment [3] it was 76.6%.

Regarding `C=CCc1ccc(O)c(-c2ccc(O)c(CC=C)c2)c1` [compound 39, Honokiol], the activity at 100 µM worked out at 111% in experiment [1], 83.9% in experiment [2] and 104% in experiment [3].

In the case of `C[C@H](CCC(=O)O)[C@H]1CC[C@H]2[C@@H]3C[C@H](O)[C@@H]4C[C@H](O)CC[C@]4(C)[C@H]3CC[C@]12C` [compound 40, Hyodeoxycholic], the activity in experiment [1] worked out at 97%; in experiment [2] it was 95.4%; in experiment [3] it was 70.8%.

Regarding `COc1ccc(-c2oc3c(CC=C(C)C)c(O[C@@H]4O[C@H](CO)[C@@H](O)[C@H](O)[C@H]4O)cc(O)c3c(=O)c2O[C@@H]2O[C@@H](C)[C@H](O)[C@@H](O)[C@H]2O)cc1` [compound 41, Icariin], the activity at 100 µM is 84% in experiment [1], 84.6% in experiment [2] and 66% in experiment [3].

Consider `OCc1c[nH]c2ccccc12` [compound 42, Ndole-3-carbinol], for which the activity was 70.6% in experiment [1], 101% in experiment [2] and 80.9% in experiment [3].

For `O=c1c(O)c(-c2ccc(O)cc2)oc2cc(O)cc(O)c12` [compound 43, Kaempferol], the activity at 100 µM in experiment [1] was determined as 32.2%; in experiment [2], 84.3%; in experiment [3], 30.2%.

With `c1coc(CNc2ncnc3[nH]cnc23)c1` [compound 44, Kinetin], the activity at 100 µM in experiment [1] was 90.5%; in experiment [2], 98.5%; in experiment [3], 78.2%.

In the case of `C[C@@H]1O[C@@H](O)[C@H](O)[C@H](O)[C@H]1O` [compound 45, L-(+)-Rhamnose Monohydrate], the activity in experiment [1] came to 81.1%; in experiment [2], 98.8%; in experiment [3], 80.6%.

As to `CC1(C)O[C@H]2CC(=O)OC[C@]23[C@H]2CC[C@@]4(C)[C@H](c5ccoc5)OC(=O)[C@H]5O[C@]54[C@]2(C)C(=O)C[C@@H]13` [compound 46, Limonin], the activity at 100 µM in experiment [1] worked out at 90.6%; in experiment [2], 103%; in experiment [3], 83.1%.
